Earlier results on three compounds are cited in patent publication US6465194B2, “Monoclonal antibodies to 4,4′-dinitrocarbanilide and a method for analyzing for the drug nicarbazin” (The United States of America as represented by the …, priority 1999, dated 2002).

In one data set the test system is Eimeria tenella. The conditions noted are these: Cuckler et al., 1955.
For data set [1] the following is noted: chickens; Porter and Gilfilan, 1955.

Take `Cc1cc(C)nc(O)n1` [HDP, 2-hydroxy-4,6-dimethylpyrimidine]: the anticoccidial activity result with Eimeria tenella (used alone) is recorded as “no anticoccidial activity”. Regarding `O=C(Nc1ccc([N+](=O)[O-])cc1)Nc1ccc([N+](=O)[O-])cc1` [DNC, 4,4′-dinitrocarbanilide], the excretion rate entry in data set [1] is “more slowly than HDP”. `Cc1cc(C)nc(O)n1.O=C(Nc1ccc([N+](=O)[O-])cc1)Nc1ccc([N+](=O)[O-])cc1` [DNC-HDP]: the “potency in the control of Eimeria tenella relative to DNC by itself” value with Eimeria tenella (complex versus DNC alone) is recorded as “ten”.
